Data on 27 molecules can be found in patent US20220402901A1 (Bial - R&D Investments, S.A., priority 2019, published 2022).

Data set [1] deals with T1, Human acid ceramidase (hACR) (Homo sapiens, UniProt Q13510).
T1 construct: expressed in transfected cells; lysates of cells overexpressing acid ceramidase
T1 sequence (Q13510 22-395): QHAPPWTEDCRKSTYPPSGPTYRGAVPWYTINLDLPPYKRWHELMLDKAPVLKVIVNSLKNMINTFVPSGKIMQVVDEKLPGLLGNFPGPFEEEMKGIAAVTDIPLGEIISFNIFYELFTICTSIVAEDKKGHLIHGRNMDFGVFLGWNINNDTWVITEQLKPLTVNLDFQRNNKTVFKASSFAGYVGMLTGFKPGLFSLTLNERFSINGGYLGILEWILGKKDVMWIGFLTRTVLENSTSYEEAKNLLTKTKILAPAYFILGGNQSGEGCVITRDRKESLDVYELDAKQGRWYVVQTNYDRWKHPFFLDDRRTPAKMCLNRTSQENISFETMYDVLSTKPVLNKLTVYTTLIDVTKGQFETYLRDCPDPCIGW
Kind of data set: Acid ceramidase biochemical fluorescent assay (cell lysates overexpressing acid ceramidase, substrate Rbm14-12). Particulars: 10 μg lysate protein, 1 hr preincubation at RT, pH 4.5, Rbm14-12 6.3 μM. As for the experimental part:
The ability of exemplary compounds to inhibit acid ceramidase was measured.
Cell lysates overexpressing acid ceramidase were used as the enzyme source for compound potency determination in a biochemical fluorescent assay. Briefly, compounds were preincubated with 10 μg protein of cell lysates in a dose-response manner for 1 hr at RT in the assay buffer containing 25 mM NaAC and 100 mM NaCl, pH 4.5. The reaction was initiated by the addition of substrate Rbm14-12 at a final concentration of 6.3 μM. The reaction was run at RT for 1 hr before it was stopped by the addition of the stopping buffer containing 20% methanol (v/v), 1 mg/ml NaIO4, 0.1 M glycine, pH 10.6. The samples were incubated with the stopping buffer at RT for 1 hr to allow the fluorescent product to be formed. Finally the plate was read with SpectraMax i3 plate reader (Molecular Devices) at ex360 nm and em446 nm. Data were collected and used to determine the IC50 values of compounds by curve fitting to the four-parameter inhibition equation.
The symbol “A” indicates inhibition of less than 0.2 μM; the symbol “B” indicates inhibition in the range of 0.2 μM up to 1 μM; and the symbol “C” indicates inhibition of greater than 1 μM.

A short description of data set [2]: Compound solubility in water. Type of data set: physicochemical. Particulars: read-out: Solubility in H2O.

In brackets after ≈: the same amount, converted by molar mass.

In data set [1], `CN1CCN(C(=O)NCCCCc2ccccc2)C(c2ccc3c(c2)oc(=O)n3C)C1` (stereo not drawn) [Example 40, 4-Methyl-2-(3-methyl-2-oxo-1,3-benzoxazol-6-yl)-N-(4-phenylbutyl)piperazine-1-carboxamide] had an IC50 of over 1 µM. Moreover, in data set [2], the solubility turned out to be 224 µM (≈ 94.6 µg/mL).
`CCCCCNC(=O)N1C(c2ccc3c(c2)oc(=O)n3C)COCC1(C)C` (stereo not drawn) [Example 43] came in with an IC50 in data set [1] of under 0.2 µM. The solubility in data set [2] amounted to 69.1 µM (≈ 25.9 µg/mL).
The molecule `C[C@H]1CC(c2ccc3c(c2)oc(=O)n3C)CCN1C(=O)NCCc1ccccc1` (stereo partly drawn) [Example 21, (2S)-Methyl-4-(3-methyl-2-oxo-1,3-benzoxazol-6-yl)-N-(2-phenylethyl)piperidine-carboxamide] yielded a half-maximal inhibitory concentration (IC50) in data set [1] of 0.2 to 1 µM. In addition, the solubility in data set [2] was found to be 56 µM (≈ 22 µg/mL).
The molecule `Cn1c(=O)oc2cc(C3CCN(C(=O)NCCCCC4CC4)C(C)(C)C3)ccc21` (stereo not drawn) [Example 31, N-(4-Cyclopropylbutyl)-2,2-dimethyl-4-(3-methyl-2-oxo-1,3-benzoxazol-6-yl)piperidine-1-carboxamide] came in with an IC50 in data set [1] of under 0.2 µM. Further, in data set [2], the solubility was 0.3 µM (≈ 0.12 µg/mL).
The matching figures for `Cn1c(=O)oc2cc(C3CCN(C(=O)NCCCCc4ccccc4)C(=O)C3)ccc21` (stereo not drawn) [Example 35, 4-(3-Methyl-2-oxo-1,3-benzoxazol-6-yl)-2-oxo-N-(4-phenylbutyl)piperidine-1-carboxamide]: over 1 µM and under 1 µM.
In data set [1], `Cn1c(=O)oc2c(C3CCN(C(=O)NCCCCc4ccccc4)CC3)cccc21` [Example 7, 4-(3-Methyl-2-oxo-1,3-benzoxazol-7-yl)-N-(4-phenylbutyl)piperidine-1-carboxamide] displayed an IC50 of over 1 µM. Moreover, in data set [2], the solubility was 13 µM (≈ 5.3 µg/mL).
In data set [1], `Cn1c(=O)oc2cc(C3CNCCN3C(=O)NCCCCc3ccccc3)ccc21` (stereo not drawn) [Example 39, 2-(3-Methyl-2-oxo-1,3-benzoxazol-6-yl)-N-(4-phenylbutyl)piperazine-1-carboxamide] yielded a concentration for half-maximal inhibition (IC50) of over 1 µM. Further, the solubility in data set [2] came to 241 µM (≈ 98.4 µg/mL).
The molecule `Cn1c(=O)oc2cc(N3CCN(C(=O)NCCC4CC4)C(C)(C)C3)ccc21` [Example 53, N-(2-Cyclopropylethyl)-2,2-dimethyl-4-(3-methyl-2-oxo-1,3-benzoxazol-6-yl)piperazine-1-carboxamide] registered an IC50 in data set [1] of over 1 µM. In addition, in data set [2], the solubility is 20.5 µM (≈ 7.64 µg/mL).
Consider `CN(C)CCn1c(=O)oc2cc(N3CCN(C(=O)NCCCCc4ccccc4)CC3)ccc21` [Example 47, 4-[3-[2-(Dimethylamino)ethyl]-2-oxo-1,3-benzoxazol-6-yl]-N-(4-phenylbutyl)piperazine-1-carboxamide], for which the IC50 in data set [1] is over 1 µM. In addition, in data set [2], the solubility came out at 250 µM (≈ 116 µg/mL).
For `Cn1c(=O)oc2cc(C3COCC(C)(C)N3C(=O)NCCCCc3ccccc3)ccc21` (stereo not drawn) [Example 42, 3,3-Dimethyl-5-(3-methyl-2-oxo-1,3-benzoxazol-6-yl)-N-(4-phenylbutyl) morpholine-4-carboxamide], the IC50 in data set [1] is under 0.2 µM. The solubility in data set [2] was found to be 14.8 µM (≈ 6.48 µg/mL).
With `Cn1c(=O)oc2ccc(C3CCN(C(=O)NCCCCc4ccccc4)CC3)cc21` [Example 9, 4-(3-Methyl-2-oxo-1,3-benzoxazol-5-yl)-N-(4-phenylbutyl)piperidine-1-carboxamide], in data set [1], the IC50 is over 1 µM. Moreover, the solubility in data set [2] was 15 µM (≈ 6.11 µg/mL).
In data set [1], `Cn1c(=O)oc2cc(C3CCN(C(=O)NCCC4CC4)C(C)(C)C3)ccc21` (stereo not drawn) [Example 29, N-(2-Cyclopropylethyl)-2,2-dimethyl-4-(3-methyl-2-oxo-1,3-benzoxazol-6-yl)piperidine-1-carboxamide] came in with an IC50 of 0.2 to 1 µM. Also, the solubility in data set [2] is 250 µM (≈ 92.9 µg/mL).
The matching figures for `Cn1c(=O)oc2cc(C3CCN(C(=O)NCCCc4ccccc4)C(C)(C)C3)ccc21` (stereo not drawn) [Example 26, 2,2-Dimethyl-4-(3-methyl-2-oxo-1,3-benzoxazol-6-yl)-N-(3-phenylpropyl)piperidine-1-carboxamide]: under 0.2 µM and 5.8 µM (≈ 2.44 µg/mL).
In data set [1], `CC(C)CNC(=O)N1CCC(c2cccc3c2oc(=O)n3C)CC1` [Example 8, N-iso-Butyl-4-(3-methyl-2-oxo-1,3-benzoxazol-7-yl)piperidine-1-carboxamide] gave an IC50 of over 1 µM. Also, the solubility in data set [2] is 143 µM (≈ 47.4 µg/mL).
The matching figures for `CCCCCNC(=O)N1CCC(c2ccc3c(c2)oc(=O)n3C)CC1(C)C` (stereo not drawn) [Example 28, 2,2-Dimethyl-4-(3-methyl-2-oxo-1,3-benzoxazol-6-yl)-N-pentylpiperidine-1-carboxamide]: under 0.2 µM and 1.7 µM (≈ 0.635 µg/mL).
Molecule `Cn1c(=O)oc2cc(N3CCN(C(=O)NCCCCc4ccccc4)C(C)(C)C3)ccc21` [Example 50, 2,2-Dimethyl-4-(3-methyl-2-oxo-1,3-benzoxazol-6-yl)-N-(4-phenylbutyl)piperazine-1-carboxamide] displayed an IC50 in data set [1] of under 0.2 µM. Moreover, the solubility in data set [2] was determined as 0.3 µM (≈ 0.131 µg/mL).
Turning to `C[C@@H]1CN(c2ccc3c(c2)oc(=O)n3C)CCN1C(=O)NCCCCc1ccccc1` [Example 48, (2R)-2-Methyl-4-(3-methyl-2-oxo-1,3-benzoxazol-6-yl)-N-(4-phenylbutyl)piperazine-1-carboxamide], the IC50 in data set [1] is 0.2 to 1 µM. Besides, the solubility in data set [2] turned out to be 4.3 µM (≈ 1.82 µg/mL).
In the case of `CC(C)CNC(=O)N1CCC(c2ccc3c(c2)oc(=O)n3C)CC1` [Example 3, N-iso-Butyl 4-(3-methyl-2-oxo-1,3-benzoxazol-6-yl)piperidine-1-carboxamide], in data set [1], the IC50 was over 1 µM. The solubility in data set [2] stood at 126 µM (≈ 41.8 µg/mL).
In the case of `Cn1c(=O)oc2cc(N3CCN(C(=O)NCCc4ccccc4)C(C)(C)C3)ccc21` [Example 51, 2,2-Dimethyl-4-(3-Methyl-2-oxo-1,3-benzoxazol-6-yl)-N-(2-phenylethyl)piperazine-1-carboxamide], the 50% inhibitory concentration (IC50) in data set [1] was 0.2 to 1 µM. Further, the solubility in data set [2] was 0.9 µM (≈ 0.368 µg/mL).
As for `CN(C)CCn1c(=O)oc2cc(N3CCN(C(=O)NCCCCc4ccccc4)C(C)(C)C3)ccc21` [Example 58, 4-[3-[2-(Dimethylamino)ethyl]-2-oxo-1,3-benzoxazol-6-yl]-2,2-dimethyl-N-(4-phenylbutyl)piperazine-1-carboxamide], in data set [1], the IC50 is under 0.2 µM. Moreover, the solubility in data set [2] worked out at 41.8 µM (≈ 20.6 µg/mL).
In turn, `Cn1c(=O)oc2cccc(C3CCN(C(=O)NCCCCc4ccccc4)CC3)c21` [Example 10, 4-(3-Methyl-2-oxo-1,3-benzoxazol-4-yl)-N-(4-phenylbutyl)piperidine-1-carboxamide] registered an IC50 in data set [1] of over 1 µM. For the same molecule, in data set [2], the solubility was 9 µM (≈ 3.67 µg/mL).
The matching figures for `CN1CCC(n2c(=O)oc3cc(C4CCN(C(=O)NCCCCc5ccccc5)CC4)ccc32)CC1` [Example 6, 4-[3-(1-Methyl-4-piperidyl)-2-oxo-1,3-benzoxazol-6-yl]-N-(4-phenylbutyl)piperidine-1-carboxamide]: over 1 µM and 10 µM (≈ 4.91 µg/mL).
The molecule `CCCCCNC(=O)N1CCN(c2ccc3c(c2)oc(=O)n3C)CC1(C)C` [Example 54, 2,2-Dimethyl-4-(3-methyl-2-oxo-1,3-benzoxazol-6-yl)-N-pentyl-piperazine-1-carboxamide] had an IC50 in data set [1] of 0.2 to 1 µM. Further, the solubility in data set [2] came out at 2.4 µM (≈ 0.899 µg/mL).
The matching figures for `Cn1c(=O)oc2cc(N3CCN(C(=O)NCCOCc4ccccc4)C(C)(C)C3)ccc21` [Example 57, N-(2-Benzyloxyethyl)-2,2-dimethyl-4-(3-methyl-2-oxo-1,3-benzoxazol-6-yl)piperazine-1-carboxamide]: 0.2 to 1 µM and 3.5 µM (≈ 1.53 µg/mL).
Regarding `Cn1c(=O)oc2cc(N3CCN(C(=O)NCCCCc4ccccc4)CC3)ccc21` [Example 46, 4-(3-Methyl-2-oxo-1,3-benzoxazol-6-yl)-N-(4-phenylbutyl)piperazine-1-carboxamide], in data set [1], the IC50 lay in the range of 0.2 to 1 µM. For the same molecule, the solubility in data set [2] stood at 6 µM (≈ 2.45 µg/mL).
For `Cn1c(=O)oc2cc(C3CCCCN3C(=O)NCCCCc3ccccc3)ccc21` (stereo not drawn) [Example 37, 2-(3-Methyl-2-oxo-1,3-benzoxazol-6-yl)-N-(4-phenylbutyl)piperidine-1-carboxamide], in data set [1], the half-inhibitory concentration (IC50) was over 1 µM. Moreover, the solubility in data set [2] stood at 30 µM (≈ 12.2 µg/mL).
For `Cn1c(=O)oc2cc(N3CCN(C(=O)NCCCCC4CC4)C(C)(C)C3)ccc21` [Example 52, N-(4-Cyclopropylbutyl)-2,2-dimethyl-4-(3-methyl-2-oxo-1,3-benzoxazol-6-yl)piperazine-1-carboxamide], the 50% inhibitory concentration (IC50) in data set [1] is under 0.2 µM. For the same molecule, the solubility in data set [2] came to 0.9 µM (≈ 0.36 µg/mL).
